Values of other authors as cited in patent US20250195566A1, “ORAL PHARMACEUTICAL COMPOSITION FOR PREVENTING AND/OR TREATING DISEASES OF THE SOFT AND HARD TISSUES SURROUNDING THE TOOTH IN THE ORAL CAVITY” (priority 2021, published 2025).

What was measured:
[1] = test system: 52 bacteria isolated from subgingival plaque; settings: bacteria isolated from patients with periodontitis
[2] = test system: supragingival bacterial plaque and gingival inflammation; settings: clinical results

SMILES: N=C(NCCCCCCNC(=N)NC(=N)Nc1ccc(Cl)cc1)NC(=N)Nc1ccc(Cl)cc1 [chlorhexidine, Chlorhexidine]
- concentration at which all bacteria were inhibited [1]: 250 mg/mL
- reduction of gingival inflammation [2]: 45%
- reduction of supragingival bacterial plaque [2]: 55%
